Patent US11987600B2, “Contraceptive use of triterpenoids” (The Regents of the University of California, priority 2017, dated 2024)

Legend:
CatSper [1] = assay: Activity of steroids and modified steroids on CatSper activation (method not described); type: cell-based, human; conditions: for activity relative to progesterone: effect of position 11 versus position 3 modification; for effect on CatSper activation: competing with progesterone
CatSper [2] = assay: Electrophysiology recordings of inward monovalent currents through CatSper (ICatSper) of human sperm; type: cell-based; conditions: for reduction of ICatSper stimulation compared to stimulation with P4 alone: co-application with P4, human spermatozoa; for reduction of ICatSper stimulation compared to stimulation with PregS alone: co-application with PregS
Description: 2-AG hydrolysis by monoacyl lipases, such as ABHD2, is required for CatSper activation. The plant triterpenoid pristimerin was reported to inhibit the activity of related monoacylglycerol lipase (MAGL) (9). […] To test this hypothesis, human spermatozoa were stimulated with pristimerin, followed by exposure to either a mixture of pristimerin and P4, or to a mixture of pristimerin and PregS. In these experiments we analyzed inward monovalent currents through CatSper (ICatSper) of human sperm. Electrophysiology recordings were performed as described in (14). […] Compared to stimulation with P4 or PregS alone, the ICatSper stimulation was reduced by 63% (pristimerin and P4) and by 48% (pristimerin and PregS) (7).
Another pharmacologically active plant triterpenoid, which affects sperm functions when orally administered to rats, is lupeol (8). Lupeol is similar in structure to steroid hormones. […] However, administration of lupeol with P4 or PregS led to an even stronger inhibition of ICatSper than pristimerin. Compared to CatSper stimulation elicited by P4 or PregS alone, CatSper currents were reduced by 71% and 68%, respectively, in combination with P4 or PregS (7).

human sperm [3] = assay: Sperm hyperactivation: curvilinear velocity (VCL) of human sperm; type: cell-based; conditions: for decrease of VCL compared to sperm treated with PregS alone: capacitated sperm; for change (increase) of VCL / reduction of VCL values in comparison to VCL in the presence of P4: capacitated spermatozoa; for change (increase) of VCL: compound alone; for reduction of VCL values in comparison to VCL in the presence of P4: stimulated with P4 + compound
Description: (§1) Pristimerin and lupeol decrease sperm hyperactivation in the presence of P4. Hyperactivated sperm motility is characterized by a highly asymmetrical bending of the sperm tail due to a CatSper-mediated rise in flagellar calcium concentration (15). Curvilinear velocity (VCL) is the average velocity of the sperm head through the sperm trajectory, which increases during capacitation. A CatSper-mediated calcium rise promotes hyperactivation and makes the sperm trajectory less linear, which results in an increase of VCL. Capacitation increases CatSper activity, which results in a higher percentage of sperm with hyperactivated motility. Thus, capacitated spermatozoa tend to have higher VCL values than non-capacitated. Since both P4 and PregS activate CatSper, while pristimerin and lupeol inhibit it, we explored whether VCL values of human sperm are affected in the presence of plant triterpenoids or steroid hormones. As expected, neither of the compounds changed VCL values of non-capacitated sperm cells. […] Stimulating capacitated sperm with PregS in combination with pristimerin or lupeol decreased VCL by 18% and 9%, respectively, compared to sperm, which were treated with PregS alone. […] Since CatSper is not only required for hyperactivation but also for basal motility, we sought to determine whether pristimerin and lupeol also affect sperm motility.

human sperm [4] = assay: Sperm motility: number/percentage of motile spermatozoa; type: cell-based; conditions: for decrease of percentage of motile sperm: capacitated sperm
Description: as §1

rats = conditions: orally administered to rats; cited from earlier work
[5] = PregS in combination with compound

For progesterone-11-BSA, the “activity relative to progesterone” value (CatSper [1]) was “inactive”.
With C[C@]12CCC(=O)C=C1CC[C@@H]1[C@@H]2[C@@H](O)C[C@@]2(C)[C@H]1CC[C@]2(O)C(=O)CO [cortisol] the “effect on CatSper activation” value (CatSper [1]) was “impair CatSper activation”.
With C=C(C)[C@@H]1CC[C@]2(C)CC[C@]3(C)[C@H](CC[C@@H]4[C@@]5(C)CC[C@H](O)C(C)(C)[C@@H]5CC[C@]43C)[C@@H]12 [lupeol] the “reduction of ICatSper stimulation compared to stimulation with P4 alone” value (CatSper [2]) was 71%, the “reduction of ICatSper stimulation compared to stimulation with PregS alone” value (CatSper [2]; human spermatozoa) was 68% and the “effect on basal ICatSper” value (CatSper [2]; compound alone, human spermatozoa) was “did not affect basal ICatSper”. For the same compound, the “decrease of VCL compared to sperm treated with PregS alone” value (human sperm [3]; [5]) was 9%, the “change (increase) of VCL” value (human sperm [3]) was “remained unchanged” and the “reduction of VCL values in comparison to VCL in the presence of P4” value (human sperm [3]) was 48%. The “change of VCL values” (human sperm [3]; non-capacitated sperm, PregS in combination with compound) was “remained unchanged”, the “change in number of motile spermatozoa” value (human sperm [4]; capacitated and non-capacitated, compound alone) was “remained unchanged” and the “reduction of motile sperm” value (human sperm [4]; capacitated or non-capacitated sperm, co-stimulation with PregS) was “did not result in a significant reduction”. The “decrease of percentage of motile sperm” value (human sperm [4]; P4 co-applied with compound) was 19%, the “change of percentage of motile sperm” value (human sperm [4]; non-capacitated cells, P4 co-applied with compound) was “did not change” and the antifertility properties (rats) was “antifertility properties”.
For progesterone-3-BSA, the “activity relative to progesterone” value (CatSper [1]) was “as active as progesterone”.
For CC(=O)[C@H]1CC[C@H]2[C@@H]3CCC4=CC(=O)CC[C@]4(C)[C@H]3CC[C@]12C [P4, progesterone, reference compound], the “change (increase) of VCL” value (human sperm [3]) was 12%.
For progesterone-11-biotin, the “activity relative to progesterone” value (CatSper [1]) was “inactive”.
With “pregnenolone sulfate [PregS, reference compound]” the “change (increase) of VCL” value (human sperm [3]) was “remained unchanged”.
For COC(=O)[C@]1(C)CC[C@]2(C)CC[C@]3(C)C4=CC=C5C(=CC(=O)C(O)=C5C)[C@]4(C)CC[C@@]3(C)[C@@H]2C1 [pristimerin], the “reduction of ICatSper stimulation compared to stimulation with P4 alone” value (CatSper [2]) was 63%, the “reduction of ICatSper stimulation compared to stimulation with PregS alone” value (CatSper [2]; human spermatozoa) was 48% and the “decrease of VCL compared to sperm treated with PregS alone” value (human sperm [3]; [5]) was 18%. The “reduction of VCL values in comparison to VCL in the presence of P4” value (human sperm [3]) was 39% and the “decrease of percentage of motile sperm” value (human sperm [4]; P4 co-applied with compound) was 19%.
With CC#C[C@]1(O)CC[C@H]2[C@@H]3CCC4=CC(=O)CCC4=C3[C@@H](c3ccc(N(C)C)cc3)C[C@@]21C [RU-486, mifepristione] the “activity relative to progesterone” value (CatSper [1]) was “inactive”.
For progesterone-3-biotin, the “activity relative to progesterone” value (CatSper [1]) was “as active as progesterone”.
With C[C@]12CC[C@H]3[C@@H](CCC4=CC(=O)CC[C@@]43C)[C@@H]1CC[C@@H]2O [testosterone] the “effect on CatSper activation” value (CatSper [1]) was “impair CatSper activation”.
With estrogen the “effect on CatSper activation” value (CatSper [1]) was “impair CatSper activation”.
